Results as given in patent publication US8133871B2, “Dihydropseudoerythromycin derivatives” (The Kitasato Institute, priority 2005, dated 2012).

Test system: THP-1 cells
Assay: THP-1 differentiation induction-promoting activity
Type: cell-based
Settings: lowest concentration necessary to show 50% activity relative to the activity value of erythromycin A at 100 μM, PMA 1-2 μM, 72-96 hr; for minimal effective concentration: Homo sapiens, THP-1
Description: As one index of the anti-inflammatory action of the compound of the present invention, the differentiation induction-promoting activity of THP-1 cell was measured. The measurement was performed as shown below.
THP-1 cells (ATCC No. TIB-202) were adjusted to a concentration of 2×10^5 cells/ml with a medium (RPMI 1640), PMA was added thereto to a final concentration of 1-2 μM, and the mixture was dispensed to each well of a 96 well plate by 100 μl. A solution (100 μl) containing a test substance was adjusted to an appropriate concentration with the medium and added to each well. The mixture was stirred by gently shaking the plate, and incubated under 37° C., 5% CO2 conditions for 72-96 hr. Each well was washed with PBS, a medium containing the viable cell measurement reagent SF (Nacalai Tesque) was added at 100 μl/well and the mixture was incubated under the conditions of 37° C., 5% CO2 for 3-5 hr. The absorbance was measured with a plate reader.
In the Table, the activity value is the lowest concentration necessary for the test compound to show a 50% activity value relative to the activity value of erythromycin A at 100 μM in this experiment.
THP-1 differentiation induction-promoting activity: The lowest concentration necessary for each compound to show 50% activity relative to the activity value of erythromycin A at 100 μM.

Molecule CC[C@@H](O)[C@@](C)(O)[C@@H]1OC(=O)[C@H](C)[C@@H](O[C@H]2CC(C)(OC)[C@@H](O)C(C)O2)[C@H](C)[C@@H](O[C@@H]2OC(C)CC(N(C)Cc3ccccc3)C2O)[C@@]2(C)CC(C)C(O2)[C@@H]1C (stereo partly shown) [EM902, de(3′-N-methyl)-3′-N-benzyl-9-dihydro-pseudoerythromycin A 6,9-epoxide] has a minimal effective concentration of 30 µM.
With CC[C@@H](O)[C@@](C)(O)[C@@H]1OC(=O)[C@H](C)[C@@H](O[C@H]2CC(C)(OC)[C@@H](O)C(C)O2)[C@H](C)[C@@H](O[C@@H]2OC(C)CC(N)C2O)[C@]2(C)CC(C)C(O2)[C@@H]1C (stereo partly shown) [EM903, bis-de(3′-N-methyl)-9-dihydro-pseudoerythromycin A 6,9-epoxide] the minimal effective concentration was 30 µM.
With CC[C@@H](O)[C@@](C)(O)[C@@H]1OC(=O)[C@H](C)[C@@H](O[C@H]2CC(C)(OC)[C@@H](O)C(C)O2)[C@H](C)[C@@H](O[C@@H]2OC(C)CC(N(Cc3ccccc3)Cc3ccccc3)C2O)[C@@]2(C)CC(C)C(O2)[C@@H]1C (stereo partly shown) [EM904, bis-de(3′-N-methyl)-bis-(3′-N-benzyl)-9-dihydro-pseudoerythromycin A 6,9-epoxide] the minimal effective concentration was 10 µM.
COC1(C)C[C@H](O[C@H]2[C@H](C)[C@@H](O[C@@H]3OC(C)CC(N(C)C)C3O)[C@]3(C)CC(C)C(O3)[C@H](C)[C@H](C(C)=O)OC(=O)[C@@H]2C)OC(C)[C@@H]1O (stereo partly shown) [EM906, de[12-(1-hydroxypropyl)]-9-dihydro-12-oxo-pseudoerythromycin A 6,9-epoxide] gave a minimal effective concentration of 30 µM.
CO[C@]1(C)C[C@H](O[C@H]2[C@H](C)[C@@H](O[C@@H]3O[C@H](C)C[C@H](N(C)C)[C@H]3O)[C@@]3(C)C[C@@H](C)[C@H](O3)[C@H](C)[C@H](/C(C)=N/O)OC(=O)[C@@H]2C)O[C@@H](C)[C@@H]1O [EM907, de[12-(1-hydroxypropyl)]-9-dihydro-12-hydroxyoxime-pseudoerythromycin A 6,9-epoxide] was tested, and the “THP-1 differentiation induction-promoting activity” value was 30.
Work on COC1(C)C[C@H](O[C@H]2[C@H](C)[C@@H](O[C@@H]3OC(C)CC(N(C)C)C3O)[C@]3(C)CC(C)C(O3)[C@H](C)[C@H](C(C)O)OC(=O)[C@@H]2C)OC(C)[C@@H]1O (stereo partly shown) [EM908, de[12-(1-hydroxypropyl)]-9-dihydro-pseudoerythromycin A 6,9-epoxide] yielded a minimal effective concentration of 10 µM.
Work on CC[C@@H]1O[C@@]1(C)[C@@H]1OC(=O)[C@H](C)[C@@H](O[C@H]2CC(C)(OC)[C@@H](O)C(C)O2)[C@H](C)[C@@H](O[C@@H]2OC(C)CC(N(C)C)C2O)[C@]2(C)CC(C)C(O2)[C@@H]1C (stereo partly shown) [EM909, 12,13-epoxy-9-dihydro-pseudoerythromycin A 6,9-epoxide] yielded a minimal effective concentration of 30 µM.
Molecule CC[C@@H](O)[C@@](C)(O)[C@@H]1OC(=O)[C@H](C)[C@@H](O)[C@H](C)[C@@H](O[C@@H]2OC(C)CC(N(C)C)C2O)[C@]2(C)CC(C)C(O2)[C@@H]1C (stereo partly shown) [EM910, de(3-O-cladinosyl)-9-dihydro-pseudoerythromycin A 6,9-epoxide] has a minimal effective concentration of 100 µM.
With CC[C@@H](OC(C)=O)[C@@](C)(O)[C@@H]1OC(=O)[C@H](C)[C@@H](O[C@H]2CC(C)(OC)C(OC(C)=O)C(C)O2)[C@H](C)[C@@H](O[C@@H]2OC(C)CC(N(C)C)C2O)[C@]2(C)CC(C)C(O2)[C@@H]1C (stereo partly shown) [EM911, 4″,13-O-diacetyl-9-dihydro-pseudoerythromycin A 6,9-epoxide] the minimal effective concentration was 10 µM.
CC[C@@H](O)[C@@](C)(O)[C@@H]1OC(=O)[C@H](C)[C@@H](O[C@H]2CC(C)(OC)[C@@H](O)C(C)O2)[C@H](C)[C@@H](O[C@@H]2OC(C)CC(N(C)C)C2OC(C)=O)[C@]2(C)CC(C)C(O2)[C@@H]1C (stereo partly shown) [EM913, 2′-O-acetyl-9-dihydro-pseudoerythromycin A 6,9-epoxide] showed a minimal effective concentration of 30 µM.
CC[C@H]1OC(=O)O[C@@]1(C)[C@@H]1OC(=O)[C@H](C)C(=O)[C@H](C)[C@@H](O[C@@H]2OC(C)CC(N(C)C)C2OC(C)=O)[C@]2(C)CC(C)C(O2)[C@@H]1C (stereo partly shown) [EM917, 2′-O-acetyl-de(3-O-cladinosyl)-9-dihydro-3-keto-pseudoerythromycin A 6,9-epoxide 12,13-carbonate] showed a minimal effective concentration of 30 µM.
In the case of CC[C@H]1OC(=O)O[C@@]1(C)[C@@H]1OC(=O)[C@H](C)C(=O)[C@H](C)[C@@H](O[C@@H]2OC(C)CC(N(C)C)C2O)[C@]2(C)CC(C)C(O2)[C@@H]1C (stereo partly shown) [EM918, de(3-O-cladinosyl)-9-dihydro-3-keto-pseudoerythromycin A 6,9-epoxide 12,13-carbonate], the minimal effective concentration is reported as 30 µM.
In the case of CC[C@@H](O)[C@@](C)(O)[C@@H]1OC(=O)[C@H](C)[C@@H](O)[C@H](C)[C@H](O[C@@H]2OC(C)CC(N(C)Cc3ccc(Cl)cc3)C2O)[C@@]2(C)CC(C)C(O2)[C@@H]1C (stereo partly shown) [EM925, de(3′-N-methyl)-3′-N-(p-chlorobenzyl)-de(3-O-cladinosyl)-9-dihydro-pseudoerythromycin A 6,9-epoxide], the minimal effective concentration is reported as 30 µM.
CC[C@H]1OC(=O)O[C@@]1(C)[C@@H]1OC(=O)[C@H](C)C(=O)[C@H](C)[C@@H](O[C@@H]2OC(C)CC(N3CCOCC3)C2OC(C)=O)[C@]2(C)CC(C)C(O2)[C@@H]1C (stereo partly shown) [EM932, 2′-O-acetyl-de(3-O-cladinosyl)-9-dihydro-3-keto-de(3′-dimethylamino)-3′-morpholino-pseudoerythromycin A 6,9-epoxide 12,13-carbonate] showed a minimal effective concentration of 10 µM.
CC[C@H]1OC(=O)O[C@@]1(C)[C@@H]1OC(=O)[C@H](C)C(=O)[C@H](C)[C@@H](O[C@@H]2OC(C)CC(N3CCOCC3)C2O)[C@]2(C)CC(C)C(O2)[C@@H]1C (stereo partly shown) [EM935, de(3-O-cladinosyl)-9-dihydro-3-keto-de(3′-dimethylamino)-3′-morpholino-pseudoerythromycin A 6,9-epoxide 12,13-carbonate] showed a minimal effective concentration of 30 µM.
For CC[C@H]1OC(=O)O[C@@]1(C)[C@@H]1OC(=O)[C@H](C)[C@@H](O)[C@H](C)[C@@H](O[C@@H]2OC(C)CC(N(C)C(=O)OCc3ccccc3)C2OC(=O)OCc2ccccc2)[C@]2(C)CC(C)C(O2)[C@@H]1C (stereo partly shown) [EM936, de(3′-N-methyl)-2′-O-3′-N-bis(benzyloxycarbonyl)-de(3-O-cladinosyl)-9-dihydro-pseudoerythromycin A 6,9-epoxide 12,13-carbonate], the minimal effective concentration was 10 µM.
With CC[C@H]1OC(=O)O[C@@]1(C)[C@@H]1OC(=O)[C@H](C)[C@@H](O)[C@H](C)[C@@H](O[C@@H]2OC(C)CC(N3CCOCC3)C2O)[C@]2(C)CC(C)C(O2)[C@@H]1C (stereo partly shown) [EM946, de(3-O-cladinosyl)-9-dihydro-de(3′-dimethylamino)-3′-morpholino-pseudoerythromycin A 6,9-epoxide 12,13-carbonate] the minimal effective concentration was 100 µM.
CC[C@H]1OC(C)(C)O[C@@]1(C)[C@@H]1OC(=O)[C@H](C)C(=O)[C@H](C)[C@@H](O[C@@H]2OC(C)CC(N(C)Cc3ccc(Cl)cc3)C2O)[C@]2(C)CC(C)C(O2)[C@@H]1C (stereo partly shown) [EM947, de(3′-N-methyl)-3′-N-(p-chlorobenzyl)-de(3-O-cladinosyl)-9-dihydro-3-keto-pseudoerythromycin A 6,9-epoxide 12,13-isopropylidene Acetal] showed a minimal effective concentration of 10 µM.
CC[C@@H](O)[C@@](C)(O)[C@@H]1OC(=O)[C@H](C)C(=O)[C@H](C)[C@H](O[C@@H]2OC(C)CC(N(C)Cc3ccc(Cl)cc3)C2O)[C@]2(C)CC(C)C(O2)[C@@H]1C (stereo partly shown) [EM949, de(3′-N-methyl)-3′-N-(p-chlorobenzyl)-de(3-O-cladinosyl)-9-dihydro-3-keto-pseudoerythromycin A 6,9-epoxide] showed a minimal effective concentration of 10 µM.
